Measured values as given in ChEMBL document CHEMBL1151010, “A case study of combinatorial libraries: Endothelin receptor antagonist hexapeptides” (Bioorg Med Chem Lett, 1995).
pIC50: −log10 of the molar value. Square brackets hold non-standard residues; d marks the D form. Peptide text beside a SMILES is read from it. dGly(5-dibenzosuberyl) = N[C@@H](C(=O)O)C1c2ccccc2CCc2ccccc21

target: T1, Endothelin-1 receptor (Sus scrofa, UniProt Q29010); test: Antagonist activity against ET-A from porcine heart membranes; format: functional, tissue-based; conditions: not given
T1 sequence (Q29010 whole entry): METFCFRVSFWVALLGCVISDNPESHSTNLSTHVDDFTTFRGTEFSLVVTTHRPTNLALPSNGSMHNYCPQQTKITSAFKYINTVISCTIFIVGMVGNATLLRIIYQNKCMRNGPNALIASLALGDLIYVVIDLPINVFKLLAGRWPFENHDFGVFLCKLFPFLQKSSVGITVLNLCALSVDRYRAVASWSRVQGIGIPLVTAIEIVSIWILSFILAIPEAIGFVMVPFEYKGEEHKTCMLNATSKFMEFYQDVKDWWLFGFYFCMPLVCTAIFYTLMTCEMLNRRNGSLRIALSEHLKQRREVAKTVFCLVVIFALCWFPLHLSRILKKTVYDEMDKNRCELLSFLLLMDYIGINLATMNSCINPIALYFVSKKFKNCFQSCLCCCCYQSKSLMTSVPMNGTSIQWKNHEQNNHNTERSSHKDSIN

pIC50	SMILES
8.70	CC[C@H](C)[C@H](NC(=O)[C@H](CC(=O)O)NC(=O)[C@H](CCC(N)=O)NC(=O)[C@H](NC(C)=O)C1c2ccccc2CCc2ccccc21)C(=O)N[C@H](C(=O)N[C@@H](Cc1c[nH]c2ccccc12)C(=O)O)[C@@H](C)CC
7.62	CC[C@H](C)[C@H](NC(=O)[C@H](CC(=O)O)NC(=O)[C@H](Cc1ccccc1)NC(=O)[C@H](NC(C)=O)C1c2ccccc2CCc2ccccc21)C(=O)N[C@H](C(=O)N[C@@H](Cc1c[nH]c2ccccc12)C(=O)O)[C@@H](C)CC
8.22	CC[C@H](C)[C@H](NC(=O)[C@H](CC(=O)O)NC(=O)[C@H](CO)NC(=O)[C@H](NC(C)=O)C1c2ccccc2CCc2ccccc21)C(=O)N[C@H](C(=O)N[C@@H](Cc1c[nH]c2ccccc12)C(=O)O)[C@@H](C)CC
8.40	CC[C@H](C)[C@H](NC(=O)[C@H](CC(=O)O)NC(=O)[C@H](CCCCN)NC(=O)[C@H](NC(C)=O)C1c2ccccc2CCc2ccccc21)C(=O)N[C@H](C(=O)N[C@@H](Cc1c[nH]c2ccccc12)C(=O)O)[C@@H](C)CC
7.96	CC[C@H](C)[C@H](NC(=O)[C@H](CC(=O)O)NC(=O)[C@H](CC(=O)O)NC(=O)[C@H](NC(C)=O)C1c2ccccc2CCc2ccccc21)C(=O)N[C@H](C(=O)N[C@@H](Cc1c[nH]c2ccccc12)C(=O)O)[C@@H](C)CC
7.30	CC[C@H](C)[C@H](NC(=O)[C@H](CC(=O)O)NC(=O)[C@H](Cc1c[nH]cn1)NC(=O)[C@H](NC(C)=O)C1c2ccccc2CCc2ccccc21)C(=O)N[C@H](C(=O)N[C@@H](Cc1c[nH]c2ccccc12)C(=O)O)[C@@H](C)CC
7.96	CC[C@H](C)[C@H](NC(=O)[C@H](CC(=O)O)NC(=O)[C@H](Cc1ccc(O)cc1)NC(=O)[C@H](NC(C)=O)C1c2ccccc2CCc2ccccc21)C(=O)N[C@H](C(=O)N[C@@H](Cc1c[nH]c2ccccc12)C(=O)O)[C@@H](C)CC
8.10	CC[C@H](C)[C@H](NC(=O)[C@H](CC(=O)O)NC(=O)[C@H](CCSC)NC(=O)[C@H](NC(C)=O)C1c2ccccc2CCc2ccccc21)C(=O)N[C@H](C(=O)N[C@@H](Cc1c[nH]c2ccccc12)C(=O)O)[C@@H](C)CC
8.52	CC[C@H](C)[C@H](NC(=O)[C@H](CC(=O)O)NC(=O)[C@H](CC(N)=O)NC(=O)[C@H](NC(C)=O)C1c2ccccc2CCc2ccccc21)C(=O)N[C@H](C(=O)N[C@@H](Cc1c[nH]c2ccccc12)C(=O)O)[C@@H](C)CC
7.96	CC[C@H](C)[C@H](NC(=O)[C@H](CC(=O)O)NC(=O)[C@H](CCC(=O)O)NC(=O)[C@H](NC(C)=O)C1c2ccccc2CCc2ccccc21)C(=O)N[C@H](C(=O)N[C@@H](Cc1c[nH]c2ccccc12)C(=O)O)[C@@H](C)CC (Ac-[dGly(5-dibenzosuberyl)]EDIIW-OH)
7.72	CC[C@H](C)[C@H](NC(=O)[C@H](CC(=O)O)NC(=O)CNC(=O)[C@H](NC(C)=O)C1c2ccccc2CCc2ccccc21)C(=O)N[C@H](C(=O)N[C@@H](Cc1c[nH]c2ccccc12)C(=O)O)[C@@H](C)CC
7.96	CC[C@H](C)[C@H](NC(=O)[C@H](CC(=O)O)NC(=O)[C@H](Cc1c[nH]c2ccccc12)NC(=O)[C@H](NC(C)=O)C1c2ccccc2CCc2ccccc21)C(=O)N[C@H](C(=O)N[C@@H](Cc1c[nH]c2ccccc12)C(=O)O)[C@@H](C)CC
8.22	CC[C@H](C)[C@H](NC(=O)[C@H](CC(=O)O)NC(=O)[C@H](C)NC(=O)[C@H](NC(C)=O)C1c2ccccc2CCc2ccccc21)C(=O)N[C@H](C(=O)N[C@@H](Cc1c[nH]c2ccccc12)C(=O)O)[C@@H](C)CC

More lines, now with the values behind:

SMILES	pIC50
CC[C@H](C)[C@H](NC(=O)[C@@H](NC(=O)[C@H](CC(=O)O)NC(=O)[C@H](CCC(N)=O)NC(=O)[C@H](NC(C)=O)C1c2ccccc2CCc2ccccc21)C(C)(C)C)C(=O)N[C@@H](Cc1c[nH]c2ccccc12)C(=O)O	8.30
CC[C@H](C)[C@H](NC(=O)[C@@H](NC(=O)[C@H](CC(=O)O)NC(=O)[C@H](CCC(N)=O)NC(=O)[C@H](NC(C)=O)C1c2ccccc2CCc2ccccc21)C(C)C)C(=O)N[C@@H](Cc1c[nH]c2ccccc12)C(=O)O	8.77
CC[C@H](C)[C@H](NC(=O)[C@H](CC(=O)O)NC(=O)[C@@H](NC(=O)[C@H](NC(C)=O)C1c2ccccc2CCc2ccccc21)C(C)C)C(=O)N[C@H](C(=O)N[C@@H](Cc1c[nH]c2ccccc12)C(=O)O)[C@@H](C)CC	7.92
CC[C@H](C)[C@H](NC(=O)[C@H](CC(=O)O)NC(=O)[C@@H](NC(=O)[C@H](NC(C)=O)C1c2ccccc2CCc2ccccc21)[C@@H](C)O)C(=O)N[C@H](C(=O)N[C@@H](Cc1c[nH]c2ccccc12)C(=O)O)[C@@H](C)CC	8.40
CC[C@H](C)[C@H](NC(=O)[C@H](CC(=O)O)NC(=O)[C@H](CCCN=C(N)N)NC(=O)[C@H](NC(C)=O)C1c2ccccc2CCc2ccccc21)C(=O)N[C@H](C(=O)N[C@@H](Cc1c[nH]c2ccccc12)C(=O)O)[C@@H](C)CC (Ac-[dGly(5-dibenzosuberyl)]RDIIW-OH)	8.52
CC[C@H](C)[C@H](NC(=O)[C@@H](NC(=O)[C@H](CC(=O)O)NC(=O)[C@H](CC(N)=O)NC(=O)[C@H](NC(C)=O)C1c2ccccc2CCc2ccccc21)C(C)C)C(=O)N[C@@H](Cc1c[nH]c2ccccc12)C(=O)O	8.40
CC[C@H](C)[C@H](NC(=O)[C@H](CC(=O)O)NC(=O)[C@@H](NC(=O)[C@H](NC(C)=O)C1c2ccccc2CCc2ccccc21)[C@@H](C)CC)C(=O)N[C@H](C(=O)N[C@@H](Cc1c[nH]c2ccccc12)C(=O)O)[C@@H](C)CC	7.68
CC[C@H](C)[C@H](NC(=O)[C@@H](NC(=O)[C@H](CC(=O)O)NC(=O)[C@H](CC(C)C)NC(=O)[C@H](NC(C)=O)C1c2ccccc2CCc2ccccc21)C(C)(C)C)C(=O)N[C@@H](Cc1c[nH]c2ccccc12)C(=O)O	8.30
CC[C@H](C)[C@H](NC(=O)[C@H](CC(=O)O)NC(=O)[C@@H]1CCCN1C(=O)[C@H](NC(C)=O)C1c2ccccc2CCc2ccccc21)C(=O)N[C@H](C(=O)N[C@@H](Cc1c[nH]c2ccccc12)C(=O)O)[C@@H](C)CC	8.22

target: T2, Endothelin-1 receptor (Sus scrofa) (UniProt Q29010); test: Inhibition of endothelin (ET-A) binding to porcine heart membranes; design: concentration or dose not given beside the values; conditions: Membrane, concentration not given here
T2 sequence (whole entry): T1 sequence (Q29010 whole entry)

inhibition	SMILES
0%	CC[C@H](C)[C@H](NC(=O)[C@H](CC(=O)O)NC(=O)[C@H](CC(=O)O)NC(=O)[C@H](CC(C)C)NC(=O)[C@H](NC(C)=O)C1c2ccccc2CCc2ccccc21)C(=O)N[C@@H](Cc1c[nH]c2ccccc12)C(=O)O
12%	CC[C@H](C)[C@H](NC(=O)[C@H](CCC(N)=O)NC(=O)[C@H](CC(=O)O)NC(=O)[C@H](CC(C)C)NC(=O)[C@H](NC(C)=O)C1c2ccccc2CCc2ccccc21)C(=O)N[C@@H](Cc1c[nH]c2ccccc12)C(=O)O
0%	CC[C@H](C)[C@H](NC(=O)[C@H](Cc1c[nH]c2ccccc12)NC(=O)[C@H](CC(=O)O)NC(=O)[C@H](CC(C)C)NC(=O)[C@H](NC(C)=O)C1c2ccccc2CCc2ccccc21)C(=O)N[C@@H](Cc1c[nH]c2ccccc12)C(=O)O
0%	CC[C@H](C)[C@H](NC(=O)[C@H](CCC(=O)O)NC(=O)[C@H](CC(=O)O)NC(=O)[C@H](CC(C)C)NC(=O)[C@H](NC(C)=O)C1c2ccccc2CCc2ccccc21)C(=O)N[C@@H](Cc1c[nH]c2ccccc12)C(=O)O
12%	CC[C@H](C)[C@H](NC(=O)[C@H](Cc1ccccc1)NC(=O)[C@H](CC(=O)O)NC(=O)[C@H](CC(C)C)NC(=O)[C@H](NC(C)=O)C1c2ccccc2CCc2ccccc21)C(=O)N[C@@H](Cc1c[nH]c2ccccc12)C(=O)O (Ac-[dGly(5-dibenzosuberyl)]LDFIW-OH)
12%	CC[C@H](C)[C@H](NC(=O)[C@@H](NC(=O)[C@H](CC(=O)O)NC(=O)[C@H](CC(C)C)NC(=O)[C@H](NC(C)=O)C1c2ccccc2CCc2ccccc21)[C@H](C)O)C(=O)N[C@@H](Cc1c[nH]c2ccccc12)C(=O)O
9%	CC[C@H](C)[C@H](NC(=O)[C@H](CC(C)C)NC(=O)[C@H](CC(=O)O)NC(=O)[C@H](CC(C)C)NC(=O)[C@H](NC(C)=O)C1c2ccccc2CCc2ccccc21)C(=O)N[C@@H](Cc1c[nH]c2ccccc12)C(=O)O
12%	CC[C@H](C)[C@H](NC(=O)[C@H](Cc1c[nH]cn1)NC(=O)[C@H](CC(=O)O)NC(=O)[C@H](CC(C)C)NC(=O)[C@H](NC(C)=O)C1c2ccccc2CCc2ccccc21)C(=O)N[C@@H](Cc1c[nH]c2ccccc12)C(=O)O
0%	CC[C@H](C)[C@H](NC(=O)[C@H](CCCCN)NC(=O)[C@H](CC(=O)O)NC(=O)[C@H](CC(C)C)NC(=O)[C@H](NC(C)=O)C1c2ccccc2CCc2ccccc21)C(=O)N[C@@H](Cc1c[nH]c2ccccc12)C(=O)O
0%	CC[C@H](C)[C@H](NC(=O)[C@H](CO)NC(=O)[C@H](CC(=O)O)NC(=O)[C@H](CC(C)C)NC(=O)[C@H](NC(C)=O)C1c2ccccc2CCc2ccccc21)C(=O)N[C@@H](Cc1c[nH]c2ccccc12)C(=O)O
0%	CC[C@H](C)[C@H](NC(=O)[C@@H]1CCCN1C(=O)[C@H](CC(=O)O)NC(=O)[C@H](CC(C)C)NC(=O)[C@H](NC(C)=O)C1c2ccccc2CCc2ccccc21)C(=O)N[C@@H](Cc1c[nH]c2ccccc12)C(=O)O
9%	CC[C@H](C)[C@H](NC(=O)[C@H](Cc1ccc(O)cc1)NC(=O)[C@H](CC(=O)O)NC(=O)[C@H](CC(C)C)NC(=O)[C@H](NC(C)=O)C1c2ccccc2CCc2ccccc21)C(=O)N[C@@H](Cc1c[nH]c2ccccc12)C(=O)O

SMILES	inhibition
CC[C@H](C)[C@H](NC(=O)[C@H](CC(=O)O)NC(=O)[C@H](CC(C)C)NC(=O)[C@H](NC(C)=O)C1c2ccccc2CCc2ccccc21)C(=O)N[C@H](C(=O)N[C@@H](Cc1c[nH]c2ccccc12)C(=O)O)[C@@H](C)CC (Ac-[dGly(5-dibenzosuberyl)]LDIIW-OH)	62%
